Holding throughout (assay): growth of human tumour cells (NCI), 48 h
Assay [1] concerns MALME-3M melanoma.
For assay [2], the system named is HOP-62 NSCLC.
The test system of assay [3] is HCT-15 colon.
The test system of assay [4] is RXF 393 renal.
For assay [5], the system named is SNB-19 CNS.
The test system of assay [6] is KM12 colon.
In assay [7] the test system is PC-3 prostate.
The subject of assay [8] is MDA-MB-231 breast.
In assay [9] the test system is MCF7 breast.

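Results reflect a 48-hour exposure of cells in 96-well plates to compound at five concentrations. Here, GI50 denotes the concentration required for 50% inhibition of growth. At the TGI there is no net growth.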

In the case of `O=C(CC1(O)C(=O)Nc2ccccc21)c1cccc(O)c1` (stereo not given), the TGI in assay [1], in assay [2], in [3], in assay [4] and in assay [5] was greater than 100 µM throughout.

Turning to `CCN(CC)c1ccc(N=Nc2ccc(-c3nc4cccnc4s3)cc2)cc1`, the TGI in assay [1], in assay [2], in [5] and in [6] was greater than 100 µM throughout.

Regarding `CCOC(=O)C(=O)CC(=O)C(Br)C(Br)c1ccc(Cl)cc1` (stereo not given), the TGI was greater than 100 µM in assay [1]; greater than 100 µM in assay [2]; greater than 100 µM in [3]; 62.6 µM in [4]; 64.6 µM in assay [5]; greater than 100 µM in assay [6].

As to `O=C1CCNC/C1=C\c1ccccc1`, the TGI in assay [2] came out at 79 µM; in assay [3], 50.1 µM; in assay [5], 46.4 µM; in assay [6] it was 28.9 µM.

Consider `Nc1ncc(CN2CCCC2)c(-c2ccccc2O)n1`, for which the TGI in assay [1], in [2], in assay [3], in [4], in assay [5] and in [6] was greater than 750 µM throughout.

Turning to `CO[C@H]1C[C@H](O[C@H]2CC[C@@]3(C)[C@H](CC[C@@H]4[C@@H]3CC[C@]3(C)[C@@H](C5=CC(=O)OC5)CC[C@]43O)C2)O[C@H](C)[C@H]1O`, the TGI turned out to be 0.0212 µM in assay [7]; 0.0113 µM in [1]; 0.0202 µM in assay [2]; 0.412 µM in [8]; 0.0164 µM in assay [3]; 0.0105 µM in assay [4]. Also, the TGI in [5] turned out to be 0.143 µM; in assay [9], 0.134 µM; in [6], 0.371 µM.

With `CC(C)(c1ccc(C=O)o1)c1ccc(C(C)(C)c2ccc(C=O)o2)o1`, the TGI in assay [1], in assay [2], in assay [4], in assay [5] and in assay [6] was greater than 100 µM each time.

With `OC[C@H]1C[C@](O)(c2ccccc2Cl)[C@@H](c2ccccc2Cl)O1`, the GI50 was 24.2 µM in [7]; 21.6 µM in assay [1]; 31.7 µM in [2]; 18.6 µM in assay [8]; 28.4 µM in assay [3]; 18.7 µM in assay [4]. In addition, the figures for the GI50 in assay [5], in assay [9] and in assay [6] were 31.7 µM, 27 µM and 25.4 µM, respectively. The TGI in [7] is 74.6 µM; in assay [1], 51.4 µM; in assay [2], greater than 100 µM; in assay [8], 47.6 µM; in assay [3], greater than 100 µM; in assay [4] it was 37.9 µM. In addition, the TGI in [5] was greater than 100 µM; in assay [9] it was 62.6 µM; in [6], 64.8 µM.

Regarding `O=[N+]([O-])c1ccc(N=P(c2ccccc2)(c2ccccc2)c2ccccc2)n2nnnc12`, the TGI is greater than 100 µM in assay [1]; 90.2 µM in [2]; greater than 100 µM in assay [3]; greater than 100 µM in assay [4]; greater than 100 µM in assay [5]; greater than 100 µM in assay [6].

In the case of `COC1=CC(=O)C2(C=C1OC)OC[C@H]1Oc3c(ccc4c3C=CC(C)(C)O4)C(=O)[C@H]12` (stereo not given in full), the TGI in assay [1], in assay [2], in assay [4], in assay [5] and in assay [6] was greater than 100 µM throughout.

Turning to `CC(=O)OC1(C(C)=O)CC2(c3ccccc3)OC1(c1ccccc1)c1ccccc12` (stereo not given), the TGI in assay [1] was greater than 100 µM; in [2], 61.5 µM; in [3] it was greater than 100 µM; in assay [4] it was 60.2 µM; in [5] it was greater than 100 µM; in [6], greater than 100 µM.

For `O=C1c2c(c3c4ccccc4n(CC4CO4)c3c3[nH]c4ccccc4c23)C(=O)N1Cc1ccccc1` (stereo not given), the TGI in assay [1], in [2], in assay [3], in [4], in assay [5] and in [6] was greater than 100 µM throughout.

Regarding `CCCCCCNC(=O)CCN(C(=O)O)S(=O)(=O)c1ccc(NC(=O)c2ccccc2)cc1`, the TGI in assay [1] was greater than 100 µM; in assay [2], greater than 100 µM; in assay [3] it was greater than 58.4 µM; in assay [4], greater than 100 µM; in assay [5], greater than 100 µM; in [6] it was greater than 100 µM.

For the compound `COc1cccc(NC(=O)/C(CS(=O)(=O)CCC(C(C)=O)C(C)=O)=N\NC(C)(C)C)c1`, the TGI in assay [1], in assay [2], in assay [3], in [4], in assay [5] and in assay [6] was greater than 100 µM in each case.

For `COc1ccc(N2C(=O)[C@@H]3[C@@H]4CC(C)CC[C@@H]4c4c([nH]c5ccccc45)[C@@H]3C2=O)cc1` (stereo not given in full), the TGI in [1] is greater than 100 µM; in assay [2] it was 32.8 µM; in assay [3], greater than 50.2 µM; in assay [5] it was 29.6 µM; in assay [6], greater than 100 µM.

Regarding `COc1cc(O)c(C(=O)C2Cc3ccccc32)c(OC)c1` (stereo not given), the TGI is greater than 100 µM in assay [1]; greater than 100 µM in [2]; greater than 100 µM in assay [3]; 69.4 µM in assay [4]; greater than 100 µM in assay [5]; greater than 100 µM in assay [6].

Turning to `COC1=CC(=O)[C@@]2(C)C(C)[C@H](c3ccccc3)[C@H]2C1=O` (stereo not given in full), the TGI in assay [1], in assay [2], in [3], in assay [4], in assay [5] and in [6] was greater than 100 µM throughout.

For the compound `CC(=O)OC1COC(N2C(=O)C(=O)c3ccccc32)C(OC(C)=O)C1OC(C)=O` (stereo not given), the TGI in assay [1], in assay [2], in assay [3], in assay [4], in [5] and in assay [6] was greater than 100 µM each time.
